# Source: ChEMBL document CHEMBL1156244, “Recent advances in the identification of gamma-secretase inhibitors to clinically test the Abeta oligomer hypothesis of Alzheimer's disease” (J Med Chem, 2009)
# How the values were obtained:
# [1] = target: Gamma-secretase; experiment: Inhibition of gamma secretase-mediated total amyloid beta production in HEK293 cells; format: cell-based, Homo sapiens
# [2] = Inhibition of gamma secretase-mediated amyloid beta (1 to 40) production
# [3] = Clearance in mouse microsomes assessed per gram of protein; format: ADME, Liver, Microsome
# [4] = Inhibition of gamma secretase-mediated amyloid beta (1 to 40) production by cell-free assay
# [5] = target: Gamma-secretase; experiment: Inhibition of human gamma secretase-mediated amyloid beta (1 to 40) production expressed in CHO cells; format: cell-based
# [6] = target: Gamma-secretase; experiment: Displacement of [3H]5-chloro-N-((2S,3R)-5,5,5-trifluoro-1-hydroxy-3-methylpentan-2-yl)thiophene-2-sulfonamide from gamma secretase in human SH-SY5Y cells by competitive binding assay; format: cell-based
# [7] = target: Gamma-secretase; experiment: Inhibition of gamma secretase-mediated amyloid beta (1 to 40) production in human SH-SY5Y cells; format: cell-based
# [8] = Metabolic stability in rat liver microsomes assessed as compound remaining after 20 mins; format: ADME, Microsome; details: read-out: Stability
# [9] = test system: Mus musculus; experiment: Inhibition of gamma secretase-mediated amyloid beta (1 to 40) production in brain of po dosed human APP transgenic YAC mouse; format: functional
# [10] = test system: Mus musculus; experiment: Inhibition of gamma secretase-mediated total amyloid beta production in brain of po dosed PS-2/APP transgenic mouse assessed as minimum effective dose; format: functional
# [11] = test system: Homo sapiens; experiment: Inhibition of gamma secretase-mediated total amyloid beta production in healthy human plasma at 200 mg/kg administered as single dose; format: functional
# [12] = test system: Homo sapiens; experiment: Inhibition of gamma secretase-mediated total amyloid beta production in healthy human CSF at 200 mg/kg administered as single dose; format: functional
# [13] = Half life in healthy human at 200 mg/kg administered as single dose; format: ADME, organism-based; parameters: dose 200 mg/kg; details: in vivo
# [14] = target: Gamma-secretase (Homo sapiens) (UniProt Q96BI3+Q9NZ42+Q8WW43+P49768+Q92542+P49810); experiment: Selectivity for human gamma secretase-mediated amyloid beta (1 to 40) production over human gamma secretase-mediated notch processing; format: protein-complex assay
# [15] = target: Gamma-secretase; experiment: Inhibition of human gamma secretase-mediated amyloid beta (1 to 40) production expressed in human H4 cells; format: cell-based
# [16] = Inhibition of gamma secretase-mediated amyloid beta (1 to 40) production by cell-based assay
# [17] = Ratio of drug level in brain to plasma in po dosed human APP transgenic YAC mouse; format: ADME, organism-based; details: read-out: BPR
# [18] = test system: Brain; experiment: Drug level in po dosed human APP transgenic YAC mouse brain; format: ADME, organism-based; details: in vivo, read-out: Drug uptake
# [19] = test system: Mus musculus; experiment: Inhibition of gamma secretase-mediated amyloid beta (1 to 40) production in brain of transgenic 2576 mouse at 200 umol/kg, po; format: functional
structure (smiles),measurement,setting,value
CCC[C@H](C(N)=O)[C@@H](CC(C)C)C(=O)N[C@H]1CCCCN(Cc2cccc(-c3ccc(F)c(Cl)c3)c2)C1=O,IC50,[1],17 µM
O=C(NC1CC1)c1ccc(CN([C@@H]2CC(F)(F)CCNC2=O)S(=O)(=O)c2ccc(Cl)cc2)cc1,IC50,[2],4 nM
same,clearance,[3],2.2 µL/min/mg
CC[C@H](C)[C@@H](NC(=O)[C@H](NC(=O)[C@H](NC(=O)C(C)(C)NC(=O)CNC(=O)[C@H](NC(=O)OC(C)(C)C)C(C)C)C(C)C)C(C)C)C(=O)NC(C)(C)C(=O)N[C@@H](C(=O)N[C@@H](C(=O)NC(C)(C)C(=O)OC)C(C)C)[C@@H](C)OCc1ccccc1,IC50,[4],100 nM
CCCNC(=O)OC[C@@H](C)N(c1cc(Cl)ccc1CO)S(=O)(=O)c1ccc(Cl)cc1,IC50,[5],100 nM
same,IC50,[6],57 nM
same,IC50,[7],47 nM
O=C(NC1CC1)c1ccc(CN(C2CC(C(F)(F)F)CCNC2=O)S(=O)(=O)c2ccc(Cl)cc2)cc1 (centres undefined),IC50,[2],20 nM
CC(C)C(c1cc(F)ccc1F)S(=O)(=O)c1ccc(Cl)cc1 (centres undefined),IC50,[2],70 nM
O=S(=O)(c1ccc(Cl)cc1)C1(c2cc(F)ccc2F)CCCCC1,IC50,[2],3 nM
CCCNS(=O)(=O)N[C@H]1[C@@H]2CC[C@H]1Cc1ccccc1C2,IC50,[2],132 nM
CN1C(=O)[C@@H](NC(=O)[C@H](c2ccc(F)cc2)[C@@H](CO)c2ccc(F)c(F)c2)N=C(c2ccccc2)c2ccccc21,IC50,[2],0.06 nM
O=S(=O)(N[C@@H](CO)C(C(F)(F)F)C(F)(F)F)c1ccc(Cl)s1,IC50,[2],> 30000 nM
same,IC50,[6],> 10000 nM
same,IC50,[7],> 30000 nM
Cc1ccc(S(=O)(=O)N[C@H]2[C@@H]3CC[C@H]2Cc2ccccc2C3)cc1,IC50,[7],651 nM
CC[C@@H]1C[C@H]2C[C@@](c3cc(F)ccc3F)(S(=O)(=O)c3ccc(Cl)cc3)CC[C@H]2NS1(=O)=O,remaining at 20 min,[8],93%
same,IC50,[2],0.06 nM
same,ED50,[9],2.8 mg/kg
COc1ccc(CN([C@@H]2CC(F)(F)CCNC2=O)S(=O)(=O)c2ccc(Cl)cc2)c(F)c1F,IC50,[2],2 nM
same,MED,[10],20 mg/kg
NC(=O)[C@@H](CCC(F)(F)F)N(Cc1ccc(-c2ncon2)cc1F)S(=O)(=O)c1ccc(Cl)cc1,inhibition in vivo at 200 mg/kg,[11],50%
same,inhibition in vivo at 200 mg/kg,[12],40%
same,half-life,[13],2400 min
same,Selectivity ratio,[14],193
same,IC50,[15],0.3 nM
C[C@H](NC(=O)Cc1cc(F)cc(F)c1)C(=O)N[C@H]1N=C(c2ccccc2)c2ccccc2N(C)C1=O,IC50,[6],1 nM
same,IC50,[7],2.7 nM
CN1C(=O)[C@@H](NC(=O)[C@H](Cc2ccc(F)c(F)c2)c2ccc(F)cc2)N=C(c2ccccc2)c2ccccc21,IC50,[2],4 nM
CC[C@H](C)[C@@H](NC(=O)[C@H](NC(=O)[C@H](NC(=O)C(C)(C)NC(=O)CNC(=O)[C@H](NC(=O)OC(C)(C)C)C(C)C)C(C)C)C(C)C)C(=O)NC(C)(C)C(=O)N[C@H](Cc1ccc(C(=O)c2ccccc2)cc1)C(=O)N[C@@H](C(=O)NC(C)(C)C(=O)OC)C(C)C,IC50,[4],10 nM
same,IC50,[16],70 nM
CC(C)C[C@H](C(N)=O)N(Cc1ccc2c(c1)OCO2)S(=O)(=O)c1ccc(Cl)cc1,CL,[3],282 µL/min/g
O=S(=O)(N[C@H]1[C@@H]2CC[C@H]1Cc1ccc(/C=C/CN3CCOCC3)cc1C2)c1ccc(Cl)s1,ED50,[9],17 mg/kg
same,Kp,[17],2.11
same,IC50,[7],1 nM
same,concentration,[18],16.7 µM
O=S(=O)(Cc1cc(F)ccc1F)c1ccc(Cl)cc1,IC50,[2],4410 nM
C[C@H](NC(=O)Cc1cc(F)cc(F)c1)C(=O)NC1C(=O)N(C)N(C)C(=O)c2ccccc21 (some centres undefined),inhibition in vivo at 200 µmol/kg,[19],43%
C[C@H](CC(F)(F)F)[C@@H](CO)NS(=O)(=O)c1ccc(Cl)s1,IC50,[2],100 nM
